This passage reports IC50, EC50 and AC50 results from ChEMBL document CHEMBL1201862, “PubChem BioAssay data set” (2004).

Experiment [1] has as its target Diphosphomevalonate decarboxylase (Streptococcus pneumoniae serotype 2 (strain D39 / NCTC 7466), UniProt Q9FD53). The experiment can be described thus: S. pneumoniae DPM-DC inhibition retest, confirmation, biochemical, cuvette format, coupled NADH fluorescence (AID 1028). The class given is functional.
Experiment [2] has as its target T1, Mannose-6-phosphate isomerase (Homo sapiens, UniProt P34949).
T1 sequence (P34949 whole entry): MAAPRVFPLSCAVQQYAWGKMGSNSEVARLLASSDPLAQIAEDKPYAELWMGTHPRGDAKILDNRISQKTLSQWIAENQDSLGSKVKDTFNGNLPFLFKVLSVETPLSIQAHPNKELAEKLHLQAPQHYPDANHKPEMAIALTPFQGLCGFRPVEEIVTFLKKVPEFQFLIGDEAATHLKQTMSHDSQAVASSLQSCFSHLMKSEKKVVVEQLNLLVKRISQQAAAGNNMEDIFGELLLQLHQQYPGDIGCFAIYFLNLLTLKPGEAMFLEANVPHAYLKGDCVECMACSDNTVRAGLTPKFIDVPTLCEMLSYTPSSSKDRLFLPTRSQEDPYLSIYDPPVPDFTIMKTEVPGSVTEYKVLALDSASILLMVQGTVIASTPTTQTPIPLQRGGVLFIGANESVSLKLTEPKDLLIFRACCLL
The experiment is described as follows: PMI enzyme inhibitors, confirmation, biochemical, fluorescence intensity (AID 1535).

A further experiment addresses Phosphomannomutase 2 (Homo sapiens, UniProt O15305). The experiment is described as follows: Counter screen SAR assay for PMM2 inhibitors via a fluorescence intensity assay. [Related pubchem assays (depositor defined):AID1545, AID1574]. (Counterscreens check selectivity or assay interference.)
Experiment [3] addresses Phosphoethanolamine/phosphocholine phosphatase (Homo sapiens, UniProt Q8TCT1). The experiment is described as follows: SAR assay for compounds that inhibit PHOSPHO1. [Related pubchem assays (depositor defined):AID1545, AID1565, AID1574].
Experiment [4] has as its target T2, Alkaline phosphatase, tissue-nonspecific isozyme (Homo sapiens, UniProt P05186).
T2 sequence (P05186 whole entry): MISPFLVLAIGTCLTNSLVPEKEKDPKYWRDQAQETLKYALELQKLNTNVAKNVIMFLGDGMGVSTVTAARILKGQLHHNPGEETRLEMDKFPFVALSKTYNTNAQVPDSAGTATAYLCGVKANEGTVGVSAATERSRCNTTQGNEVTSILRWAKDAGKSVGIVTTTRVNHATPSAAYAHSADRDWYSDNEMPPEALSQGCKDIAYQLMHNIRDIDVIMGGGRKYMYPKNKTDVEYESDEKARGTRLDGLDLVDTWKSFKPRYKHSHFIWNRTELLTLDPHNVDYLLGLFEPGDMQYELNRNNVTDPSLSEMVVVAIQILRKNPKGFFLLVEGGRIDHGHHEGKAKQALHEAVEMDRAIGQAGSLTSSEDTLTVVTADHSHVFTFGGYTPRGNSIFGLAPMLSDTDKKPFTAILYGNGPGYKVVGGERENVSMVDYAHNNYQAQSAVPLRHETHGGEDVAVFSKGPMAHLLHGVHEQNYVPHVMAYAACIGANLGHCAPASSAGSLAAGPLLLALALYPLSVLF
The experiment is described as follows: human TNAP enzyme inhibitors, SAR follow-up, biochemical, luminescent, dose response (AID 1056).

The next experiment has as its target Prothrombin (Homo sapiens, UniProt P00734). The experiment can be described thus: Thrombin 1536 HTS Dose Response Confirmation. [Related pubchem assays: 1046 (Thrombin 1536 HTS; hits were confirmed in this assay)]. The class given is functional.
A further experiment concerns Saccharomyces cerevisiae. The experiment can be described thus: NALP1 inhibitor project selectivity study, Caspase-1/ASC signal blockade IC50 in S. cerevisiae (AID 488863). The class given is functional, organism-based.
Experiment [5] deals with NACHT, LRR and PYD domains-containing protein 1 (Homo sapiens, UniProt Q9C000). The experiment can be described thus: NALP1 inhibitors in yeast, dose response, luminescent (AID 488860). The format is functional.
Experiment [6] is described as follows: inhibitors of firefly luciferase expression or activity, dose response, H4 neuroglioma cells, luminescence (AID 1990). The class given is functional, cell-based.
Experiment [7] in a line: Luminescence Cell-Based Dose Response HTS to Identify Inhibitors of 5'UTR Stem-Loop Driven Prion Protein mRNA Translation in H4 Neuroglioblastoma Cells. [Related pubchem assays: 1827 (Project Summary), 1813 (Primary HTS)]. The format is functional.
A short description of experiment [8]: inhibitors of SNCA 5'UTR-driven reporter translation, confirmation, H4 neuroglioma cells, luminescence (AID 1988). The class given is functional, cell-based.
A short description of experiment [9]: cytotoxicity in HEK-293T cells, dose response, cytotoxicity control for BCR NF-kB inhibitor project, luminescence, B-cell screen hits (AID 489021).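 Also: HEK-293T cells carrying an NF-kB luciferase reporter; cells exposed to compound for about 14 hours before viability readout.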 The format is functional, cell-based.
In experiment [10] the target is DNA dC->dU-editing enzyme APOBEC-3A (Homo sapiens, UniProt P31941). The experiment can be described thus: APOBEC3A DNA deaminase inhibitors, dose response, biochemical (AID 504722). The format is functional.
The target of experiment [11] is DNA dC->dU-editing enzyme APOBEC-3G (Homo sapiens, UniProt Q9HC16). The experiment can be described thus: Dose Response confirmation of small molecule APOBEC3G DNA Deaminase Inhibitors via a fluorescence-based single-stranded DNA deaminase assay. [Related pubchem assays (depositor defined):AID493012, AID493028]. The format is functional.
Experiment [12] deals with FAD-linked sulfhydryl oxidase ALR (Homo sapiens, UniProt P55789). The experiment can be described thus: inhibitors of human ALR sulfhydryl oxidase, dose response, biochemical, H2O2 detection, luminescence, cherry-pick (AID 493248).
The target in experiment [13] is T3, SUMO-activating enzyme (Homo sapiens, UniProt Q9UBT2). The experiment can be described thus: SUMOylation inhibitor hit validation, confirmation, SUMOylation inhibitor project, biochemical, AlphaScreen (AID 2018). The class given is functional. On the technique in general: Alpha assays give light when donor and acceptor beads are brought close together.
The target in experiment [14] is T3, SUMO-activating enzyme. The experiment can be described thus: inhibitors of in vitro SUMOylation cascade, primary screen, biochemical, HTRF, uHTS (AID 2006). The format is protein-complex assay. On the technique in general: TR-FRET usually uses a lanthanide donor and a delayed reading to cut background.
Experiment [15] concerns the target Metabotropic glutamate receptor 4 (Homo sapiens, UniProt Q14833). The experiment is described as follows: Modulation of the Metabotropic Glutamate Receptor mGluR4: Potency at human mGluR4. Modulation of intracellular Ca2+ using Fluo-4, AM, in CHO expressing recombinant receptor [Related pubchem assays (depositor defined):AID2437, AID2807]. The class given is functional, cell-based.

The source made the active and inactive calls.

T3 sequence (Q9UBE0 whole entry): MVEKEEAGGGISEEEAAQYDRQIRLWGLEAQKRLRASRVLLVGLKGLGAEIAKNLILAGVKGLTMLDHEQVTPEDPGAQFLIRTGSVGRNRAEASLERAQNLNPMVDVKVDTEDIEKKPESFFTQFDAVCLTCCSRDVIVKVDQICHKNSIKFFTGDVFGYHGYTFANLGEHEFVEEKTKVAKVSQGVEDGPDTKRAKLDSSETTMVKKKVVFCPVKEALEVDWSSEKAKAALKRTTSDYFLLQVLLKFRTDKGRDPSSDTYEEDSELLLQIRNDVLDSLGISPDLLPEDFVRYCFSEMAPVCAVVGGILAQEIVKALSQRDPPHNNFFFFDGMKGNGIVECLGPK
T3 sequence (Q9UBT2 whole entry): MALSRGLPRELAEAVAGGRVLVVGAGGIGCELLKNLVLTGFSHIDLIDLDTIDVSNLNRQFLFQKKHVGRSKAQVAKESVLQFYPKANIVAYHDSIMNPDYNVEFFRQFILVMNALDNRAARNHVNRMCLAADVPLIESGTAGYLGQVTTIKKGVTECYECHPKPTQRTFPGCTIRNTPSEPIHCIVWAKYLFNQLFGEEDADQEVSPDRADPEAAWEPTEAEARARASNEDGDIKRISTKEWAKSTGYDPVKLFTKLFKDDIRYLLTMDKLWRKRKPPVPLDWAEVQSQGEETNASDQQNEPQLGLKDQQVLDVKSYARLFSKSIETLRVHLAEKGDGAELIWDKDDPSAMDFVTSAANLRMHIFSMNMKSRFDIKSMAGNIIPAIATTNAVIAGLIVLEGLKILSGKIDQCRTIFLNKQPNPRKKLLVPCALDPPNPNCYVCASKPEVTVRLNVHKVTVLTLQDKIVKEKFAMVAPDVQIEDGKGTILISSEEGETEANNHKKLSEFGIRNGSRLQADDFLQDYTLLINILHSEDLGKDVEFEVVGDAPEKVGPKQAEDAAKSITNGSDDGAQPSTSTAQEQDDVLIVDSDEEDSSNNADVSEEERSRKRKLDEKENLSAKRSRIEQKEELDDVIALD
Diphosphomevalonate decarboxylase, sequence (Q9FD53 whole entry): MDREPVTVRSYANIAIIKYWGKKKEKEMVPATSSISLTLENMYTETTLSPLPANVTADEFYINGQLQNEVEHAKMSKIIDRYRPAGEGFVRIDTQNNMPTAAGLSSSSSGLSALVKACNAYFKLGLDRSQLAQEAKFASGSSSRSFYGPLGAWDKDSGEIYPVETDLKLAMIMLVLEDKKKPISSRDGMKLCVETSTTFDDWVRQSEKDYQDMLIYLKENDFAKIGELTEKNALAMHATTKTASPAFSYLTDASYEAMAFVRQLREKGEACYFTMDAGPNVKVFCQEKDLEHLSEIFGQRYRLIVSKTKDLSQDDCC
DNA dC->dU-editing enzyme APOBEC-3G, sequence (Q9HC16 whole entry): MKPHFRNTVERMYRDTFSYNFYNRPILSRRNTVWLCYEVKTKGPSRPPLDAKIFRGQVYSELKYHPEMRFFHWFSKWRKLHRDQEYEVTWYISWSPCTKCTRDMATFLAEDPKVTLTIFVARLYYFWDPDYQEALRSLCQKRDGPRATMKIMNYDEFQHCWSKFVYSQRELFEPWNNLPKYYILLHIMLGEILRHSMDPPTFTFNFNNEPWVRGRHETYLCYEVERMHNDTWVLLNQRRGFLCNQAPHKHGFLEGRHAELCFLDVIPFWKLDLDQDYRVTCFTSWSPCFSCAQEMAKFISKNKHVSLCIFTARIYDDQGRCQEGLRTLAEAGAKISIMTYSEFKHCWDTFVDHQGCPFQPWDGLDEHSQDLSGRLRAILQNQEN
NACHT, LRR and PYD domains-containing protein 1, sequence (Q9C000 1-1212 limits assumed): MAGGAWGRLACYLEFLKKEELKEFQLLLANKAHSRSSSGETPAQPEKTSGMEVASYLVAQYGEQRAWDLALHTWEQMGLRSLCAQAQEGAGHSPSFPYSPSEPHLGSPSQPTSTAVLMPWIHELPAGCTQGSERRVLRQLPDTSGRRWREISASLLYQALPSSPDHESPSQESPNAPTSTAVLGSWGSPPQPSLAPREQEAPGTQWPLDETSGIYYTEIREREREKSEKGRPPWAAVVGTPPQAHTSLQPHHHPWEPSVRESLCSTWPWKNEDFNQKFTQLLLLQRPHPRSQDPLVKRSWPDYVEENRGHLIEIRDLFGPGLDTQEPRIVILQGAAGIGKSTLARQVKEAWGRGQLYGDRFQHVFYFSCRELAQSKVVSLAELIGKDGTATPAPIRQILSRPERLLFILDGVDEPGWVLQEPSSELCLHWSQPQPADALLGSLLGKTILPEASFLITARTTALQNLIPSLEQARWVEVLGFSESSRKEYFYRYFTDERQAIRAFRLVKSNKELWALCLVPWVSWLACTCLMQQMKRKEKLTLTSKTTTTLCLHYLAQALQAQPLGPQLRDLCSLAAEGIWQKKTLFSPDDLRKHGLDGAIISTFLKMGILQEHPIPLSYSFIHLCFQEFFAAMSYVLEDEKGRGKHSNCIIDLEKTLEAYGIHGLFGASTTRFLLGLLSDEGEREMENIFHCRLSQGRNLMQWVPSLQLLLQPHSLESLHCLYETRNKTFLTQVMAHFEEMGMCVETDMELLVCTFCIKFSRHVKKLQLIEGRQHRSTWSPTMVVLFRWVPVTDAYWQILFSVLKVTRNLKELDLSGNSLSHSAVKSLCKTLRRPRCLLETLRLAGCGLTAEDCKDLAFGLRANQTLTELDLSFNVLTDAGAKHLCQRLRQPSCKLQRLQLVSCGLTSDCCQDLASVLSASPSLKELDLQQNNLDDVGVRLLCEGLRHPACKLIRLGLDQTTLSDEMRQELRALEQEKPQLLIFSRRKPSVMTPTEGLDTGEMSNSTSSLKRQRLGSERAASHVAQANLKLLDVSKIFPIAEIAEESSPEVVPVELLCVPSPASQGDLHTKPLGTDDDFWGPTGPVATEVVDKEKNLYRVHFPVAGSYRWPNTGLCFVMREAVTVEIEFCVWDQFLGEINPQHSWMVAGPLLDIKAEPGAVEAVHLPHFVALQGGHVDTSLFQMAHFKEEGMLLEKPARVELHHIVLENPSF
NACHT, LRR and PYD domains-containing protein 1, sequence (Q9C000 1213-1473 limits assumed): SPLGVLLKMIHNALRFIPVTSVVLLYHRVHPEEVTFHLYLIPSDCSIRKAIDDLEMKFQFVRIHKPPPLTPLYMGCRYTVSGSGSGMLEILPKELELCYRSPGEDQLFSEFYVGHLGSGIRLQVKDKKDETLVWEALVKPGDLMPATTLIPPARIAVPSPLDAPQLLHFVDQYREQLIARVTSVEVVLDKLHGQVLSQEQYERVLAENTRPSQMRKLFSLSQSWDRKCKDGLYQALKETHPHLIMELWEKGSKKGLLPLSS
Phosphoethanolamine/phosphocholine phosphatase, sequence (Q8TCT1 whole entry): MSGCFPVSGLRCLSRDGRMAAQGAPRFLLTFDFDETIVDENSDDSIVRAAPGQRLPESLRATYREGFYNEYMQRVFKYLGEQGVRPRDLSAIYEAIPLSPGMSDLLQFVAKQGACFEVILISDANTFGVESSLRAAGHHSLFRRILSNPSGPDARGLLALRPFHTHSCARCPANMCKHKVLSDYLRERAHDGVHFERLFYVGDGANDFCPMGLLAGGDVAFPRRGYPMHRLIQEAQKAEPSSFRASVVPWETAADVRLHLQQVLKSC
DNA dC->dU-editing enzyme APOBEC-3A, sequence (P31941 whole entry): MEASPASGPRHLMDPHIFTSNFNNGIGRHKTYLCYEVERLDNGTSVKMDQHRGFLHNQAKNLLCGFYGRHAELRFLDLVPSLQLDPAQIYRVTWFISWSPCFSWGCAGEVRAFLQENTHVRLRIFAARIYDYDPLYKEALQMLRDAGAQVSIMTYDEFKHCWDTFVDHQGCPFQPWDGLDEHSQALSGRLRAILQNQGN
Metabotropic glutamate receptor 4, sequence (Q14833 whole entry): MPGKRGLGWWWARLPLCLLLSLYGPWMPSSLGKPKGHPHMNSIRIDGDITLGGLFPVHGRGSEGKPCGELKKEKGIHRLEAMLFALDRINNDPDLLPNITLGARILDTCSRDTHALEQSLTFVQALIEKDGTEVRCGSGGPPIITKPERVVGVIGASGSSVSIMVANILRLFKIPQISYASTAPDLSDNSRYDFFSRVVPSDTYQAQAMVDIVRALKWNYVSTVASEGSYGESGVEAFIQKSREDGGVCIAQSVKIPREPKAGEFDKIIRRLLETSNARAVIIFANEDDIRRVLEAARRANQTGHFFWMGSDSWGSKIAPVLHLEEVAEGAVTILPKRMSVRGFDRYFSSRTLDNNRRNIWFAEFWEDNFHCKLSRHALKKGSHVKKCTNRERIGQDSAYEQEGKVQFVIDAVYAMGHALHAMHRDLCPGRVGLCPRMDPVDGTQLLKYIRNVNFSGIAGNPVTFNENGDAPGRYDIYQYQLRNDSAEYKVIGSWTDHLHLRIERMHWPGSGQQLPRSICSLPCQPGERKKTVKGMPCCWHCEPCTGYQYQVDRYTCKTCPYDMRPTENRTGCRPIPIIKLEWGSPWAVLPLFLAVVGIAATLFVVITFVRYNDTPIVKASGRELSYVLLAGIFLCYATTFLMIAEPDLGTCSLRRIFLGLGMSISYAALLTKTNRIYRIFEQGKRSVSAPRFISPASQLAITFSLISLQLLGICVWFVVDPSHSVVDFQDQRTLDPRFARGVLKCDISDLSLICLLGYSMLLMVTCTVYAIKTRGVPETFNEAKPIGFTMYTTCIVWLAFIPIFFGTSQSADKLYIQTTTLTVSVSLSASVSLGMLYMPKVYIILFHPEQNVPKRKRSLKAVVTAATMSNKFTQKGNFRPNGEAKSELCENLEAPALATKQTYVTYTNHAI
Phosphomannomutase 2, sequence (O15305 whole entry): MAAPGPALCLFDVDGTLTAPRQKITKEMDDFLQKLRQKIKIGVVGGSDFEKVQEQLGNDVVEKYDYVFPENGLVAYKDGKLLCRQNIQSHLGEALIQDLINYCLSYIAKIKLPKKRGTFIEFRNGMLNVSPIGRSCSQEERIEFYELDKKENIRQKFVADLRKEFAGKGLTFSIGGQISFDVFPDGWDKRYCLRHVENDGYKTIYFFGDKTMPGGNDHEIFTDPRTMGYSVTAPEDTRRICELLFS

As to `O=C(NCc1ccccc1)c1cccc(-n2sc3ccccc3c2=O)c1`, the IC50 in [1] is 4.74 µM (active); in experiment [2], 2.25 µM (active); at Phosphomannomutase 2 it was 17.8 µM (active); in experiment [3], 2.33 µM (inactive); in experiment [4] it was > 100 µM (inactive).
Consider `COCC(=O)n1nc(-c2ccc(Cl)cc2)nc1NCc1ccc(F)cc1`, for which the results for the IC50 (on Prothrombin; in the experiment with Saccharomyces cerevisiae; in [5]) were 1.8 µM (active), > 100 µM (inactive) and > 100 µM (inactive), respectively.
For `Cc1ccc(C(=O)NNC(=O)CCCN2C(=O)/C(=C/c3ccccc3Cl)SC2=S)cc1`, the EC50 is 10.8 µM (active) in experiment [6], > 120 µM (not active) in experiment [7] and 14 µM (active) in experiment [8]. Moreover, the IC50 in [9] was > 80 µM (inactive).
`CCn1c(-c2ccc(Cl)cc2)n[nH]c1=S`: the results for the IC50 in experiment [10] and in [11] were > 100 µM (inactive) and 5.43 µM (active), respectively. Further, the AC50 in [12] is 6.5 µM (active).
Take `C=CCOc1c(Br)cc(/C=C2\SC(Nc3ccccc3)=NC2=O)cc1OC`: the results for the IC50 on SUMO-activating enzyme [13] and on SUMO-activating enzyme [14] were 29.9 µM (active) and 12 µM (active), respectively.
Take `N#Cc1ccc(NC(=O)c2ccccn2)cc1C(F)(F)F`: in [15], the EC50 was 1.77 µM (active).

As usually defined, the IC50 is the point on the concentration scale where inhibition reaches its midpoint. One may read the EC50 as the concentration that produces a half-maximal response. Broadly, the AC50 is the concentration giving half of the maximal activity seen.
